The record followed here is patent US9567367B2, “Synthetic peptides for treatment of bacterial infections” (priority 2012, dated 2017).

Like-named read-outs stand apart in the source and are kept apart here. Square brackets hold non-standard residues; d marks the D form. Ends that are not written are not given here.

One series has as its system E. coli strain 018:K1. Nature of the series: E. coli peritonitis, survival. The format is in vivo, BALB/c mice.
In a further series the test system is S. pyogenes. On the set-up: species or system BALB/c mice. The following applies: mouse, in vivo.
Another series deals with Streptococcus pneumoniae. The series is classed as in vivo, BALB/c mice. The following applies: ceftriaxone alone 1 mg/kg i.p. (suboptimal) at 24 hours post infection. On the procedure: Treatment with the peptide D-Ala-p2TA was adjunct to antibiotic treatment, and was given at a delayed time point, when the infection was already established.
When the animals are treated with ceftriaxone alone, administered intraperitoneal (i.p.) at a suboptimal dose of LD25 (1 mg/kg), given at 24 hours after the infection, survival rates increased to 20%. However, when the peptide D-Ala-p2TA (at 5 mg/kg) was given in combination with the antibiotics, 24 hours post infection, substantial increase in survival, to 50%, was detected (see FIG. 17).
The correlation between survival benefit and different doses of the peptide D-Ala-p2TA was investigated when the S. pneumoniae infected animals (n=10) received a combination of a fixed dose of antibiotics (ceftriaxone, at a suboptimal dose of 1 mg/kg, administered i.p.) and different doses of the peptide D-Ala-p2TA, given 2 minutes after antibiotic treatment at 24 hours post infection. Under these experimental conditions (see FIG. 18), non-treated mice died rapidly, starting at day 2, and by day 3, all animals were already dead. Antibiotic treatment alone did provide a minor change in survival, bringing it to 20%.

The subject of a further series is polymicrobial infection. The series is described as follows: Cecal ligation and puncture (CLP) polymicrobial infection, survival. The following applies: moxifloxacin alone, high dose (LD90) at 12 hours post CLP. The series is classed as in vivo, mice.
The conditions of series [1]: in vivo.

What is called half-life is the time in which the quantity being followed falls by half. A higher half-life goes with slow loss.

Regarding `CO/N=C(\C(=O)N[C@@H]1C(=O)N2C(C(=O)[O-])=C(C[N+]3(C)CCCC3)CS[C@H]12)c1csc(N)n1` [cefepime], the overall survival in the series on E. coli strain 018:K1 (cefepime alone, suboptimal 5 mg/kg i.m. 4 hours after challenge) is 20%.
With `CO/N=C(\C(=O)N[C@@H]1C(=O)N2C(C(=O)O)=C(CSc3nc(=O)c(=O)[nH]n3C)CS[C@H]12)c1csc(N)n1` [ceftriaxone], the survival in the series with S. pyogenes was found to be 70%; in the series on Streptococcus pneumoniae, 20%.
With `COc1c(N2C[C@@H]3CCCN[C@@H]3C2)c(F)cc2c(=O)c(C(=O)O)cn(C3CC3)c12` [moxifloxacin], the survival rate with polymicrobial infection turned out to be 22%.
With `CSCC[C@H](NC(=O)[C@@H]1CCCN1C(=O)[C@@H](N)CO)C(=O)N[C@@H](CC(C)C)C(=O)N[C@H](C(=O)N[C@@H](C)C(=O)N[C@@H](Cc1ccc(O)cc1)C(=O)N[C@@H](CC(=O)O)C(=O)O)C(C)C` [p2TA, SPMLVAYD], the half-life in series [1] was in the range of 1 to 2.6 min.
In the case of “H-D-Ala-Ser-Pro-Met-Leu-[U-^14C]Val-Ala-Tyr-Asp-D-Ala-OH [[^14C]-D-Ala-p2TA]”, under “5 mg/kg single i.v., radioactivity”, the “time of peak accumulation in lymphatic organs (lymph nodes)” value was found to be 20 min. In addition, the “ratio of lymph nodes to plasma” value (4 minutes post infusion) is given as “greater than 1”. The “ratio of radioactivity in spleen compared to plasma” value (20 min after injection) turned out to be 6 fold and the “ratio of radioactivity in spleen compared to plasma” value (24 hours post injection) came to 3 fold. For the same compound, the “levels in lymph nodes vs plasma” value (20 minutes) is listed as 22 fold, the “levels in lymph nodes vs plasma” value (24 hours post dosing) was “greater than 3 fold” and the “levels in lymph nodes vs plasma” value (for 2 hours) is on record as “more than 5 fold”. For the setting “post injection, 5 mg/kg single i.v.”, the “start of accumulation in lymphatic organs” value was 4 min.
As for [dA]ASMDYPVL[dA] [scrambled peptide], the survival rate result with E. coli strain 018:K1 (scrambled peptide control) is listed as “comparable to the saline treated control”.
